Consider eight molecules from patent publication US12686682B2, “Indazole acetylene derivatives” (Hoffmann-La Roche Inc., priority 2020, dated 2026).

Molecules are shown by their SMILES.

The target of the assay is T1, Phospho EGFR LRCS (BaF3-LRCS cell line) (Homo sapiens, UniProt P00533, C797S/L858R).
T1 construct: host or cells: BaF3 (BaF3-LRCS), kept under puromycin selection
T1 sequence (P00533 25-1210 C797S/L858R): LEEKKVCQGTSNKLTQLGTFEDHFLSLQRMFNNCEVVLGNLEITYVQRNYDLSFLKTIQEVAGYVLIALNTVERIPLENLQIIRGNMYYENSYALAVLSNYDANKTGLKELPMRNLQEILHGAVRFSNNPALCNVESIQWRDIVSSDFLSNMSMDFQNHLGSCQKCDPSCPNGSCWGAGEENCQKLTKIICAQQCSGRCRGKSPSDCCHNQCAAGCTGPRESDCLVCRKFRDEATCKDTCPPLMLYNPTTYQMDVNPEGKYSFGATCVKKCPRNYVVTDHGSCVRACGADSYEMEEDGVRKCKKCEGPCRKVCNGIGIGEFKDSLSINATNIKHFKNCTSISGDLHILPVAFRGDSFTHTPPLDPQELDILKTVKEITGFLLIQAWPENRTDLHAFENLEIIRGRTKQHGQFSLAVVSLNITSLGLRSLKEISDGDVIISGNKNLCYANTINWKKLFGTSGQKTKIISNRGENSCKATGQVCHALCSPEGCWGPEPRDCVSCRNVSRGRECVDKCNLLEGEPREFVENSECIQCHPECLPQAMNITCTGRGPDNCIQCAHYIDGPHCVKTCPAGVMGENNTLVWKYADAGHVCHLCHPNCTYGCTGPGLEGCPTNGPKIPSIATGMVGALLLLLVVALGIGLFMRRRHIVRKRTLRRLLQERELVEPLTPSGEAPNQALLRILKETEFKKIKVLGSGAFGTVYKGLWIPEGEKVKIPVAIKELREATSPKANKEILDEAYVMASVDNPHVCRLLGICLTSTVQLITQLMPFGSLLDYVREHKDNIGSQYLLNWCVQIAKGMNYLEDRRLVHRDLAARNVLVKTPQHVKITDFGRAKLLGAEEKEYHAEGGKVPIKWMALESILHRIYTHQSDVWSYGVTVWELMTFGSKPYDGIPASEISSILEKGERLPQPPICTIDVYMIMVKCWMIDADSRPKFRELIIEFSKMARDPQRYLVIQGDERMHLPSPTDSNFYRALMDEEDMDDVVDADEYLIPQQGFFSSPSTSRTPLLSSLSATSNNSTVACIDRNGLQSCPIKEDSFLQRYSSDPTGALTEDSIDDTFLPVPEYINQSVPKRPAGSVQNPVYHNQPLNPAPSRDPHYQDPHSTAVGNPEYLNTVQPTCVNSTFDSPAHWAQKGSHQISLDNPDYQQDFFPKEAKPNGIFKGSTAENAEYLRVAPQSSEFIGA
The assay can be described thus: HTRF Phospho EGFR LRCS Assay (Cellular). It counts as cell-based. To be noted: BaF3-LRCS cells, 4 hours incubation, HTRF phospho-EGFR readout. On the procedure: HTRF Phospho EGFR LRCS Assay (Cellular)
BaF3-LRCS cell line were obtained from Crownbio (San Diego, CA, USA). Cells were maintained at 37° C., 5% C02 in RPMI ATCC (Gibco 31870)+2 mM Glutamine+0.5 μg/ml Puromycin supplemented with 10% fetal bovine serum (FBS) (Gibco).
Cells are transferred as above to Greiner Bio-One, Nr. 784-08 micro-titerplate at 20000 cells/well in 12.5 μl of growth medium/well after the plates had been pre-filled with 12.5 nl of DMSO solutions of the to be tested compounds (in dose response) or DMSO only. After spinning the plates at 300×g for 30 seconds the cells were incubated for 4 hours at 37 C, 5% C02, 95% humidity. The cells were lysed by adding to the compound mix 4 µl/well of the supplemented lysis buffer (Cis-bio, Phospho-EGFR HTRF kit, 64EG1PEH), followed by incubation for 30 min at room temperature with shaking (400 rpm). The plates were then frozen and stored overnight at −80° C. On the next day and after thawing the plates, 4 μl of a mixture of anti-Phospho-EGFR Cryptate and of anti-Phospho-EGFR-d2 antibody solutions prepared in the supplied detection buffer was added to each well. The lidded plates were then incubated for 4 h at room temperature before reading the fluorescence emission at 616 and 665 nm using an Envision reader (Perkin Elmer). Data was analyzed in similar fashion as above using the normalized ratio of the 665 to 616 signals multiplied by 10000.
For orientation: TR-FRET usually uses a lanthanide donor and a delayed reading to cut background.
For orientation: IC50 means the concentration that gives 50% inhibition. Turning to `Cc1c(C#Cc2ccc(CN3CCC(CO)CC3)cc2)cc(C(F)F)c2cn(C(C(=O)Nc3nccs3)c3ncn4c3C[C@@H](F)C4)nc12` (stereo partly drawn) [Example 1, 2-[4-(Difluoromethyl)-6-[2-[4-[[4-(hydroxymethyl)-1-piperidyl]methyl]phenyl]ethynyl]-7-methyl-indazol-2-yl]-2-[(6R)-6-fluoro-6,7-dihydro-5H-pyrrolo[1,2-c]imidazol-1-yl]-N-thiazol-2-yl-acetamide], the IC50 is 22 nM. Take `Cc1c(C#Cc2ccc(CN3CCC(CO)CC3)cc2)cc(C(F)F)c2cn(C(C(=O)Nc3nccs3)c3ncn4c3CCC4)nc12` (centres unmarked) [Example 2, 2-[4-(Difluoromethyl)-6-[2-[4-[[4-(hydroxymethyl)-1-piperidyl]methyl]phenyl]ethynyl]-7-methyl-indazol-2-yl]-2-(6,7-dihydro-5H-pyrrolo[1,2-c]imidazol-1-yl)-N-thiazol-2-yl-acetamide]: the IC50 was 23 nM.

Regarding `Cc1c(C#Cc2ccc(CN3CCC(CO)CC3)cc2)cc(C(F)(F)F)c2cn(C(C(=O)Nc3nccs3)c3ncn4c3C[C@@H](F)C4)nc12` (stereo partly drawn) [Example 3, 2-[(6R)-6-Fluoro-6,7-dihydro-5H-pyrrolo[1,2-c]imidazol-1-yl]-2-[6-[2-[4-[[4-(hydroxymethyl)-1-piperidyl]methyl]phenyl]ethynyl]-7-methyl-4-(trifluoromethyl)indazol-2-yl]-N-thiazol-2-yl-acetamide], the midpoint of inhibition, the IC50, lay at 15 nM. `Cc1c(C#Cc2ccc(CN3CCC(CO)CC3)cc2)cc(C(F)(F)F)c2cn(C(C(=O)Nc3nccs3)c3ncn4c3CCC4)nc12` (centres unmarked) [Example 4, 2-(6,7-Dihydro-5H-pyrrolo[1,2-c]imidazol-1-yl)-2-[6-[2-[4-[[4-(hydroxymethyl)-1-piperidyl]methyl]phenyl]ethynyl]-7-methyl-4-(trifluoromethyl)indazol-2-yl]-N-thiazol-2-yl-acetamide]: the IC50 stood at 9 nM. For `Cc1c(C#Cc2ccc(CN3CCC(CO)CC3)cc2)cc(C(F)F)c2cn(C(C(=O)Nc3nccs3)c3ncn4c3CCC4(C)C)nc12` (centres unmarked) [Example 5, 2-[4-(Difluoromethyl)-6-[2-[4-[[4-(hydroxymethyl)-1-piperidyl]methyl]phenyl]ethynyl]-7-methyl-indazol-2-yl]-2-(5,5-dimethyl-6,7-dihydropyrrolo[1,2-c]imidazol-1-yl)-N-thiazol-2-yl-acetamide], 11 nM corresponded to half-maximal inhibition (IC50). In the case of `Cc1c(C#Cc2ccc(CN3CCC(CO)CC3)cc2)cc(C(F)F)c2cn(C(C(=O)Nc3nccs3)c3ncn4c3CCC43CC3)nc12` (centres unmarked) [Example 6] it was 10 nM; in that of `Cc1c(C#Cc2ccc(CN3CCC(CO)CC3)cc2)cc(C(F)(F)F)c2cn(C(C(=O)Nc3nccs3)c3ncn4c3CCC43CC3)nc12` (centres unmarked) [Example 7], 11 nM; in that of `Cc1c(C#Cc2ccc(CN3CCC(CO)CC3)cc2)cc(C(F)(F)F)c2cn(C(C(=O)Nc3nccs3)c3ncn4c3CCC4(C)C)nc12` (centres unmarked) [Example 8, 2-(5,5-Dimethyl-6,7-dihydropyrrolo[1,2-c]imidazol-1-yl)-2-[6-[2-[4-[[4-(hydroxymethyl)-1-piperidyl]methyl]phenyl]ethynyl]-7-methyl-4-(trifluoromethyl)indazol-2-yl]-N-thiazol-2-yl-acetamide], 12 nM.
